Data on 3 compounds can be found in US9175013B2, “Fused aminodihydrothiazine derivatives” (Eisai R&D Management Co., Ltd., priority 2011, dated 2015).

The nature of data set [1]: Brain tissue binding (BTB), rapid equilibrium dialysis. The data set is classed as in vitro ADME, Sprague Dawley rat. The following applies: 1 μg/mL in rat brain homogenate, 37° C., 6 h dialysis, mean of n = 3; for fraction unbound at 6 h, 1 μg/mL: male, Sprague Dawley, pH 7.4, read-out: Rat Brain fu. As to the method:
(§1) Method for Determination of Plasma Protein Binding (PPB) and Brain Tissue Binding (BTB) Compound Preparation • Compounds were dissolved in DMSO to give a 1 mg free base/mL solution, before further dilution to 100 μg/mL in acetonitrile (100 μL of 1 mg/mL into 900 μL acetonitrile). Matrix Preparation • On the morning of dialysis, control male Sprague Dawley rat plasma and brain, previously stored at −80° C. were thawed at room temperature. Plasma was checked for pH and if necessary adjusted to 7.4 with 1M HCl. Plasma was then centrifuged (2000 g for 10 min) and the brains diluted with 2 mL of Phosphate Buffered Saline (pH 7.4) per gram of tissue and homogenised using a mechanical homogeniser. An aliquot (10 μL) of the 100 μg/mL acetonitrile compound solution was then added to 1 mL of plasma and brain homogenate and vortex mixed to give a final compound concentration of 1 μg/mL in matrix. RED Plate Preparation • The Rapid Equilibrium Dialysis (RED) plate (Thermo Scientific) was prepared in accordance with the manufacturers guidelines i.e. the base plate was soaked in 20% (v/v) ethanol for 10 min and then rinsed twice with deionised water before being allowed to dry. The base plate was then filled with the appropriate number of disposable inserts (n=3 per compound) (Thermo Scientific) and matrix containing 1 μg/mL compound added into the matrix chamber of the inserts (200 μL) and an aliquot (350 μL) of PBS added to the buffer chamber. The plate was then covered with an adhesive and incubated in air at 37° C. for 6 h with 130 rpm agitation. Sampling • Following the 6 h incubation, the seal was removed and an aliquot (50 μL) taken from the PBS chambers and dispensed into Micronics tubes. Also, an aliquot (50 μL) was removed from the matrix chambers and placed into separate Micronics tubes. Plasma and brain was then matrix matched with 50 μL of drug-free PBS and the PBS samples with 50 μL of the corresponding drug-free matrix, to give equal final compositions and volumes […]. Sample Analysis • Samples were vortex mixed and an aliquot (300 μL) of acetonitrile containing 0.1% formic acid and 100 ng/mL of an appropriate internal standard added. Samples were then mixed and centrifuged (2000 g for 15 min) and an aliquot of the supernatant (100 μL) removed into a 96-deep well plate and diluted with an equal volume of water ready for analysis by LC-MS/MS. • The following data was obtained for the following compounds in the above assay (Table 5).
In general terms: In equilibrium dialysis only unbound substance equilibrates across the membrane.

Data set [2] is described as follows: Plasma protein binding (PPB), rapid equilibrium dialysis. The data set is classed as in vitro ADME. The following applies: male, Sprague Dawley, rat, 37° C., 6 h dialysis. As to the method:
as §1

[3] abbreviates: pH 7.4, 1 μg/mL in rat plasma, mean of n = 3, read-out: Rat PPB (%) (converted).
Where [4] appears, read: pH 7.4, fraction unbound, 1 μg/mL in rat plasma, mean of n = 3, read-out: Rat Plasma fu.

On to `COc1cnc(C(=O)Nc2cc(F)c(F)c([C@]34CO[C@H](CF)[C@H]3CSC(N)=N4)c2)cn1` [Example 4, N-(3-((4aS,5S,7aS)-2-amino-5-(fluoromethyl)-4a,5,7,7a-tetrahydro-4H-furo[3,4-d][1,3]thiazin-7a-yl)-4,5-difluorophenyl)-5-methoxypyrazine-2-carboxamide], for which the “Rat BTB (%)” value in data set [1] is reported as 97.9%. The fraction unbound at 6 h, 1 μg/mL in data set [1] is 0.021; in data set [2] (setting [3]), 0.13; in data set [2] (setting [4]), 0.13.
As for `COc1cnc(C(=O)Nc2ccc(F)c([C@]34CO[C@H](CF)[C@H]3CSC(N)=N4)c2)cn1` [Example 2, N-(3-((4aS,5S,7aS)-2-amino-5-(fluoromethyl)-4a,5,7,7a-tetrahydro-4H-furo[3,4-d][1,3]thiazin-7a-yl)-4-fluorophenyl)-5-methoxypyrazine-2-carboxamide], in data set [1], the “Rat BTB (%)” value came to 93.4%. Further, the fraction unbound at 6 h, 1 μg/mL is 0.066 in data set [1], 0.251 in data set [2] (setting [3]) and 0.252 in data set [2] (setting [4]).
On to `COc1cnc(C(=O)Nc2ccc(F)c([C@]34CO[C@H](C(F)F)[C@H]3CSC(N)=N4)c2)cn1` [Example 3, N-(3-((4aS,5S,7aS)-2-amino-5-(difluoromethyl)-4a,5,7,7a-tetrahydro-4H-furo[3,4-d][1,3]thiazin-7a-yl)-4-fluorophenyl)-5-methoxypyrazine-2-carboxamide], for which the “Rat BTB (%)” value in data set [1] came to 96.5%. The fraction unbound at 6 h, 1 μg/mL was 0.035 in data set [1], 0.143 in data set [2] (setting [3]) and 0.143 in data set [2] (setting [4]).
